Key:
[1] = test system: rabbit model of stereotactic lung radiosurgery; assay: SB-CSI with hp Xe-129 in a rabbit model of stereotactic lung radiosurgery with and without a radioprotector; assay type: in vivo, New Zealand rabbits; conditions: for mean difference between the lungs (SB-CSI maps, mean±SD): right lower lobe 3 x 11 Gy, 50 mg/Kg I.V. 20 minutes before each radiation dose, baseline 3.2%±3.5%
Text: In order to study the efficacy of this technique for detecting changes in lung physiology and morphology, it was applied to a rabbit model of stereotactic lung radiosurgery with and without a radioprotector. The lower lobes of the right lung of nine New Zealand rabbits were irradiated with 3 doses of 11 Gy each (FIGS. 2A, 2B) using a TomoTherapy Hi-Art scanner. The healthy left lung was spared from radiation, so it could be used as a control and also would improve the animal's quality of life. Six of these nine animals received 50 mg/Kg of the radioprotector Amifostine, through an I.V., 20 minutes before each radiation dose. SB-CSI was performed using a 1.5-Tesla clinical MR scanner at baseline, and at 4 and 8 weeks post-radiation treatment. For correlation with the SB-CSI results, each animal was also scanned at the same time points (in the same MR scanner) using a 3D contrast-enhanced MRA sequence (ce-MRA), with 3 cc of a gadolinium chelate (FIGS. 2E, 2F). Within a week of the Xe-129 scan, a hyperpolarized Helium-3 (hp He-3) ventilation scan (FIGS. 2G, 2H) was obtained using the same inhalation and breath-hold technique as those for Xe-129, and a computed tomography (CT) scan was also obtained with a resolution of 0.5×0.5×1.5 mm^3 (FIGS. 2C, 2D).
SB-CSI maps based on the integrals of each individual peak were calculated separately for each animal and for each time point. At baseline the mean differences between the lungs were statistically identical for both groups, with 1.3%±1.0% (mean±SD) for the control group (radiosurgery only) and 3.2%±3.5% for the group that received radiosurgery and the radioprotector. At 4 weeks post radiosurgery, the mean differences between the lungs were 6.2%±2.3% and 4.6%±3.2% for the control and radioprotector groups, respectively. At 8 weeks post, the mean difference between the lungs increased to 16.7%±3.2% for the control group, while for the animals that received the radioprotector the value remained identical to baseline, at 3.4%±2.6%. […]

[2] = test system: rabbit model of lung fibrosis; assay: hyperpolarized Xe-129 2D/3D-CSI in a rabbit model of lung fibrosis (endotracheal bleomycin); assay type: in vivo, New Zealand White rabbits; conditions: after endotracheal instillation, scans at 2, 4 and 7 weeks
Text: Three New Zealand White rabbits underwent hyperpolarized Xe-129 2D or 3D-CSI one four different days: one before and 2, 4 and 7 weeks after the endotracheal instillation of bleomycin which induces lung fibrosis, or after the endotracheal instillation of porcine elastase which initially induces lung inflammation but later induces emphysema, and one control animal with no intervention. All scans were done in a 1.5 Tesla clinical system (Avanto, Siemens Medical Solutions) using a transmitter/receiver birdcage RF coil (IGC Medical Advances, Milwaukee, Wis.) tuned to the Xe-129 frequency. Isotopically enriched (˜87%) Xe-129 was polarized to ˜35% using a commercial prototype polarizer (Xemed LLC, NH). For each 2D or 3D acquisition, a single 40-cc volume was administered to the animal, and respiration was suspended for the acquisition (˜6-18s). […]
Quantification of the maps for the animal in the fibrosis model group show an increase in the tissue/gas and RBC/gas ratios following the instillation of bleomycin, but only the tissue/gas remained elevated, as expected in fibrosis (FIG. 5).
This Xe-129 dissolved-phase peak is not well resolved in normal rabbits and it was not seen in our control animal. […] Subsequently, each separate peak in the spectrum was quantified using a Principal Component Analysis (PCA) method (33)

Compound	early treatment toxicity (radiation-induced pulmonary injury) detected by SB-CSI ([1]; 4 and 8 weeks post treatment, versus radiation only)	mean difference between the lungs (SB-CSI maps, mean±SD) ([1]; 4 weeks post radiosurgery, control group 6.2%±2.3%)	mean difference between the lungs (SB-CSI maps, mean±SD) ([1]; 8 weeks post radiosurgery, control group 16.7%±3.2%)	RBC/gas ratio (Xe-129 CSI maps) ([2]; did not remain elevated (FIG. 5))	tissue/gas ratio (Xe-129 CSI maps) ([2]; remained elevated (FIG. 5))
NCCCNCCSP(=O)(O)O [radioprotector, Amifostine]	reduced early treatment toxicity	4.6%±3.2%	3.4%±2.6%	–	–
bleomycin	–	–	–	increase	increase

Source: US20100280358A1, “SINGLE BREATH-HOLD SYSTEM AND METHOD FOR DETECTION AND ASSESSMENT OF MULTI-ORGAN PHYSIOLOGIC, MORPHOLOGIC AND STRUCTURAL CHANGES” (University of Virginia Patent Foundation, priority 2009, published 2010)
